# Measurements as given in the METLIN SMRT retention time set (Domingo-Almenara et al. 2019).
# Test: gradient 5% acetonitrile 3 min, to 50% in 2 min, to 85% in 15 min, held 3 min, 100 µL/min
# Conditions: column: Zorbax Extend-C18 2.1 x 50 mm; eluents: water / acetonitrile, 0.1% formic acid
# Procedure, shortened: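 Each retention time is based on an adduct peak selected computationally and verified by manual inspection. Measurements used HPLC–quadrupole time-of-flight mass spectrometry in positive and negative ionization mode on mixtures of ~100 pure standards. Chromatography ran on a Zorbax Extend-C18 column (2.1 × 50 mm, 1.8 μm) at 100 μL/min with water and acetonitrile, each containing 0.1% formic acid, and dead and dwell volumes of 40 μL and 900 μL.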
row,Structure (SMILES),RP-LC retention time
1,Cc1ccc(NC(=O)C2CCCN(c3nc4ccsc4c(=O)n3Cc3ccc(F)cc3)C2)cc1 (stereo not given),1030 s
2,Cc1ccc(-c2[nH]ncc2CN)cc1,562 s
3,Cn1c(=O)c2nc(SCCC(=O)Nc3cc(F)cc(F)c3)n(C)c2n(C)c1=O,751 s
4,Cc1nn(-c2nc(-c3ccc(F)cc3)cs2)c(C)c1CC(=O)Nc1cccc(C(F)(F)F)c1,1280 s
5,CCCNC(=O)N1CCCC(CCc2nnc(-c3cnccn3)o2)C1 (stereo not given),647 s
6,CC(C)C(=O)Nc1cc2c(cc1S(=O)(=O)c1ccc(F)cc1)n(C)c(=O)n2C,790 s
7,c1csc(-c2[nH]ncc2CN2CCN(c3cnn4cnnc4c3)CC2)c1,835 s
8,O=C(Nc1nnc(C2CC(=O)N(c3ccc(F)cc3)C2)o1)c1ccccc1Cl (stereo not given),712 s
9,Cc1cccc(CN2CCCn3nc(C(=O)NCCc4cccs4)cc3C2=O)c1,820 s
10,CCN1c2cc(Cl)ccc2C(=O)NC12CCN(C(=O)NCCc1ccccc1)CC2,863 s
11,Cn1ncc2c3ccccc3n(CCCC(=O)NCCCN3CCCC3=O)c2c1=O,665 s
12,O=C(Cn1c(-c2cccnc2)nc2ccccc21)Nc1nccs1,628 s
13,Cc1ccc(S(=O)(=O)N2CCC3(CC2)c2nccn2CCN3C)cc1F,654 s
14,O=C(Cc1ccc(NC(=O)c2cnc3ccccc3n2)cc1)NCC(F)(F)F,756 s
15,O=C(CCC1CCN(c2cc(NC3CC3)ncn2)CC1)NCc1ccc(F)cc1Cl,689 s
16,Cc1nc(C2CCOCC2)n(C2CCN(S(=O)(=O)c3ccccc3Cl)C2)n1 (stereo not given),740 s
17,O=C(NCc1ccc(Br)cc1)C(=O)c1c[nH]c2ccccc12,995 s
18,Cc1ccc(S(=O)(=O)N2CCC(c3nc(-c4cccc(-c5ccn[nH]5)c4)no3)CC2)cc1,971 s
19,Cc1c(Cl)cccc1S(=O)(=O)N1CCc2c(c(-c3nnc(-c4ccc(F)cc4)o3)nn2C)C1,1090 s
20,Cc1ccc(Oc2nccnc2SCC(=O)Nc2ccc(C)c(C)c2)cc1,1140 s
21,Cn1c(=O)sc2cc(S(=O)(=O)N3CCC(C(=O)N4CCc5ccccc5C4)CC3)ccc21,896 s
22,COc1ccc(NS(=O)(=O)c2c(C)nn(-c3ccc(-c4ccc(C)cc4)nn3)c2C)cc1,1060 s
23,CC(C)n1cnc2cc(CNC(=O)c3ccccn3)ccc21,590 s

row,Structure (SMILES),RP-LC retention time
1,O=C1OCC/C1=C\OCCCO/C=C1\CCOC1=O,716 s
2,CCCN(CC1CCOC1)C(=O)c1ccccc1Cl (stereo not given),788 s
3,C#Cc1cccc(NC(=O)c2ccc(Cl)cc2Cl)c1,1060 s
4,CCOc1ccc(NC(=O)c2cnc(N3CCN(CC)CC3)nc2N)cc1,609 s
5,CCOC(=O)c1sc(NC(=O)c2cc3ccccc3o2)nc1C,974 s
6,COc1cc(NC(=O)N2CCC(N3CCN(Cc4ccc(F)cc4)C(=O)C3=O)CC2)cc(OC)c1,724 s
7,CCn1ccc2sc(C)c(C(=O)NCc3cccc(C)c3)c2c1=O,850 s
8,COc1cc(-c2nnc(-c3ccc(C)c(S(=O)(=O)N4CCC(C)CC4)c3)o2)cc(OC)c1OC,1170 s
9,O=C(O)c1ccc(Nc2c(-c3cccc(Cl)c3)nc3cnccn23)cc1,714 s
10,Cc1ccc(-n2cc(C(=O)O)nn2)cc1F,684 s
11,O=C(NCc1ccco1)c1c(O)c2cccnc2n(-c2cccc(F)c2)c1=O,1070 s
12,Cc1ccc(CNC(=O)CCc2c(C)nn(-c3cc(N4CCCC4)ncn3)c2C)o1,745 s
13,CCN1C(=O)Cc2cc(C(=O)N3CCN(c4ccccc4F)CC3)ccc21,848 s
14,CN(C)c1ncncc1N1CCC(C(=O)N2CCN(c3ccccc3F)CC2)CC1,650 s
15,COc1cccc(CNC(=O)CSc2nccnc2N2CCSCC2)c1OC,824 s
16,O=C(NCc1ccco1)C1CCN(c2cncnc2N2CCOCC2)CC1,578 s
17,CN(C)S(=O)(=O)c1ccc(Cl)c(-c2nnc(-c3ccccc3)o2)c1,983 s
18,COc1ccc(Cl)cc1C(=O)Nc1cnc(N2CCCCC2)nc1,1070 s
19,C(=N/NC1=NCCN1)/c1c2ccccc2c(/C=N\NC2=NCCN2)c2ccccc12,590 s
20,O=C(NCCc1nc2cccnc2n1-c1ccccc1)c1ccoc1,646 s
21,NC(=O)C1CCN(C(=O)CSc2nc3ccccc3s2)CC1,627 s
22,Cn1nc(-c2nc(Cc3ccccc3)no2)c2c1CCN(C(=O)NC1CCCCC1)C2,933 s
23,COc1ccc(-c2nnc(COc3cccc(NC(=O)C4CCC4)c3)o2)cc1,901 s

row,Structure (SMILES),RP-LC retention time
1,O=C(c1ccc(F)c(F)c1)N1CCN(c2cc(-c3cccs3)[nH]n2)CC1,758 s
2,CN(C)CCCN1c2ccc3ccccc3c2Sc2cccc(Cl)c21,792 s
3,O=C(Cc1csc2nc(-c3ccccc3)cn12)Nc1ccc(Cl)cc1,868 s
4,Cc1nn(-c2ccc(F)cc2)c(C)c1S(=O)(=O)N1CCC(C(=O)NC(C)(C)C)CC1,888 s
5,Cc1nn(-c2ccc(-c3ccccc3)nn2)c(C)c1S(=O)(=O)N(C)Cc1ccccc1,1190 s
6,COC(=O)c1cccc(C(=O)Nc2ccc(Cl)cc2C)n1,971 s
7,O=C([C@@H]1C[C@H](F)CN1S(=O)(=O)c1ccc(Cl)cc1)N1CCCCC1,852 s
8,Cc1ccc(CNC(=O)C2(C)Oc3cccnc3N(C)C2=O)o1 (stereo not given),740 s
9,Cc1ccc2cc(CCC(=O)NCCc3cccnc3)c(=O)[nH]c2c1,586 s
10,Cc1cc(C)n(Cc2nc(-c3ccc(NC(=O)C(C)C)cc3)oc2C)n1,816 s
11,COc1cc(NC(=O)N2CCC3(CC2)N=C(c2cccc(F)c2)C(=O)N3)cc(OC)c1,822 s
12,Cn1nccc1-c1cccc(-c2noc(-c3ccnc(Cl)c3)n2)c1,1050 s
13,CC(NC(=O)c1ccccn1)C(=O)Nc1nc2ccccc2[nH]1 (stereo not given),608 s
14,CCOC(=O)Cc1ccc(NC(=O)N2CCC3(CC2)Nc2cc(F)ccc2-n2cccc23)cc1,1000 s
15,CCCn1cc(CCNC(=O)c2cccc(Br)c2)c2cccnc21,833 s
16,O=C(CCCN1C(=O)c2cccc3cccc(c23)C1=O)NC1CCCCC1,812 s
17,Cc1cc(=O)n2c(-c3ccc(NC(=O)C(C)Oc4ccc5c(c4)OCO5)cc3)csc2n1 (stereo not given),757 s
18,CCOc1ccc(CC(=O)N2C[C@@H]3C[C@H](NC(=O)c4ccccc4)[C@H]2C3)cc1,799 s
19,CNc1nc(Nc2ccccc2C)nc2ccccc12,664 s
20,CCc1ccc(S(=O)(=O)N2CCC(n3cnnc3CC)CC2)cc1,746 s
21,CCCN1C(=O)c2cc(S(=O)(=O)Nc3cccc(Cl)c3)ccc2Oc2cccnc21,1120 s
22,CCc1c(C(=O)O)nnn1Cc1ccccc1C,728 s
23,COc1ccc2c(c1)OC1(C)CC2C(S(=O)(=O)c2ccc(C)cc2)C(=O)N1 (stereo not given),877 s

row,Structure (SMILES),RP-LC retention time
1,Cc1cc2c(cc1S(=O)(=O)N1CCCC1C(=O)N1CCN(c3ccccc3)CC1)OCC(=O)N2 (stereo not given),747 s
2,Cc1nc(-c2cc(S(=O)(=O)N3CCC(C(=O)NC4CCCCCC4)CC3)c(C)s2)no1,707 s
3,CCN(CC)C(=O)Cn1nc2cc(C)nc(-c3ccc(C(F)(F)F)cc3)n2c1=O,841 s
4,COCC(=O)N1CCN(c2nc(CN3CCC(C)CC3)cs2)CC1,570 s
5,Cc1ccc(/C=C/c2onc(C)c2S(=O)(=O)N2CCC(C(=O)NCC3CCCO3)CC2)cc1 (stereo not given),828 s
6,Cc1cccc(-c2ncccc2CNS(=O)(=O)c2cccs2)c1,677 s
7,Cc1cccc(N(C)C(=O)CCS(=O)(=O)c2ccc3c(c2)CC(C)N3C(=O)C2CC2)c1 (stereo not given),807 s
8,COc1ncccc1CNC(=O)c1nn(C)c2ccccc12,798 s
9,COCCCNC(=O)c1ccc(-c2nc(CN3CCc4ccccc43)c(C)o2)cc1,951 s
10,CCCN1C(=O)c2c(C(=O)NCc3ccccc3)ncn2CC1(C)C(=O)NCCC(C)C (stereo not given),817 s
11,Cc1ccc(CNS(=O)(=O)c2ccc(-c3nnc(C4CC4)o3)o2)o1,816 s
12,COc1ccc(N2CC(c3nc(-c4ccccc4Cl)no3)CC2=O)cc1 (stereo not given),926 s
13,CCOC(=O)CC1=CC(SCC(=O)N2CCC(C)CC2)=Nc2ccccc2N1,1150 s
14,O=C(CCC(=O)N1CC2CCCN2c2ccccc21)NCc1ccccn1 (stereo not given),639 s
15,COc1cccc(NC(=O)c2cc(C(C)(C)C)n3nccc3n2)c1,1250 s
16,O=C(NCCCOc1cccc2cccnc12)c1cc(=O)c2ccccc2o1,648 s
17,CC(C)c1noc(C2CCCCN2Cc2cc(F)cc(F)c2)n1 (stereo not given),1170 s
18,COc1ccccc1NC(=O)c1ccc2nc(-c3ccccc3)cn2c1,725 s
19,CN(C)C(=O)c1ccc2c(c1)N(CC(=O)N1CCN(c3ccccn3)CC1)C(=O)CS2,573 s
20,COC(=O)N1CCc2ccccc2C1C(=O)Nc1ccccc1C(F)(F)F (stereo not given),877 s
21,Cc1nc(C)c(-c2cc(C(=O)N3CCN(c4ccc(F)cc4)CC3)n[nH]2)s1,690 s
